Results published in ChEMBL document CHEMBL5321272 (J Med Chem, 2023).
Calls of active or inactive are those of the source. No cut-off for these calls is given here.

tested on: not listed separately; experiment: Cmax in ICR mouse at 10 mg/kg, po; assay type: ADME, organism-based; set-up: dose 10 mg/kg, route po; conditions: in vivo

Row | SMILES | Cmax [ng/mL]
1 | CC(=O)N1CCc2cc(Nc3ncc(C(F)(F)F)c(N[C@H]4CC[C@@H](N)CC4)n3)ccc2C1 | 555
2 | C[C@@H](O)C(=O)N1CCc2cc(Nc3ncc(C(F)(F)F)c(N[C@H]4CC[C@@H](N)CC4)n3)ccc2C1 | 80.1
3 | CC(C)(O)C(=O)N1Cc2ccc(Nc3ncc(C(F)(F)F)c(N[C@H]4CC[C@@H](N)CC4)n3)cc2C1 | 263

tested on: BaF3; experiment: Antiproliferative activity against mouse BaF3 cells harboring FLT3 F691L mutant assessed as reduction in cell viability incubated for 72 hrs by CellTiter 96 Aqueous One Solution Cell Proliferation Assay; assay type: functional, cell-based; conditions: not given

Row | SMILES | Activity
4 | CC(=O)N1CCc2cc(Nc3ncc(C(F)(F)F)c(N[C@H]4CC[C@@H](N)CC4)n3)ccc2C1 | Active
5 | C[C@@H](O)C(=O)N1CCc2cc(Nc3ncc(C(F)(F)F)c(N[C@H]4CC[C@@H](N)CC4)n3)ccc2C1 | Active
6 | CC(C)(O)C(=O)N1Cc2ccc(Nc3ncc(C(F)(F)F)c(N[C@H]4CC[C@@H](N)CC4)n3)cc2C1 | Active

tested on: BaF3; experiment: Antiproliferative activity against mouse BaF3 cells harboring FLT3 D835V mutant assessed as reduction in cell viability incubated for 72 hrs by CellTiter 96 Aqueous One Solution Cell Proliferation Assay; assay type: functional, cell-based; conditions: not given

Row | SMILES | Activity
7 | CC(=O)N1CCc2cc(Nc3ncc(C(F)(F)F)c(N[C@H]4CC[C@@H](N)CC4)n3)ccc2C1 | Active
8 | C[C@@H](O)C(=O)N1CCc2cc(Nc3ncc(C(F)(F)F)c(N[C@H]4CC[C@@H](N)CC4)n3)ccc2C1 | Active
9 | CC(C)(O)C(=O)N1Cc2ccc(Nc3ncc(C(F)(F)F)c(N[C@H]4CC[C@@H](N)CC4)n3)cc2C1 | Active

molecular target: Mast/stem cell growth factor receptor Kit (Homo sapiens, UniProt P10721); experiment: Inhibition of c-KIT (unknown origin) using peptide substrate TK-S and ATP as substrate incubated for 1 hr by HTRF assay; assay type: toxicity; conditions: not given
Sequence (P10721 whole entry): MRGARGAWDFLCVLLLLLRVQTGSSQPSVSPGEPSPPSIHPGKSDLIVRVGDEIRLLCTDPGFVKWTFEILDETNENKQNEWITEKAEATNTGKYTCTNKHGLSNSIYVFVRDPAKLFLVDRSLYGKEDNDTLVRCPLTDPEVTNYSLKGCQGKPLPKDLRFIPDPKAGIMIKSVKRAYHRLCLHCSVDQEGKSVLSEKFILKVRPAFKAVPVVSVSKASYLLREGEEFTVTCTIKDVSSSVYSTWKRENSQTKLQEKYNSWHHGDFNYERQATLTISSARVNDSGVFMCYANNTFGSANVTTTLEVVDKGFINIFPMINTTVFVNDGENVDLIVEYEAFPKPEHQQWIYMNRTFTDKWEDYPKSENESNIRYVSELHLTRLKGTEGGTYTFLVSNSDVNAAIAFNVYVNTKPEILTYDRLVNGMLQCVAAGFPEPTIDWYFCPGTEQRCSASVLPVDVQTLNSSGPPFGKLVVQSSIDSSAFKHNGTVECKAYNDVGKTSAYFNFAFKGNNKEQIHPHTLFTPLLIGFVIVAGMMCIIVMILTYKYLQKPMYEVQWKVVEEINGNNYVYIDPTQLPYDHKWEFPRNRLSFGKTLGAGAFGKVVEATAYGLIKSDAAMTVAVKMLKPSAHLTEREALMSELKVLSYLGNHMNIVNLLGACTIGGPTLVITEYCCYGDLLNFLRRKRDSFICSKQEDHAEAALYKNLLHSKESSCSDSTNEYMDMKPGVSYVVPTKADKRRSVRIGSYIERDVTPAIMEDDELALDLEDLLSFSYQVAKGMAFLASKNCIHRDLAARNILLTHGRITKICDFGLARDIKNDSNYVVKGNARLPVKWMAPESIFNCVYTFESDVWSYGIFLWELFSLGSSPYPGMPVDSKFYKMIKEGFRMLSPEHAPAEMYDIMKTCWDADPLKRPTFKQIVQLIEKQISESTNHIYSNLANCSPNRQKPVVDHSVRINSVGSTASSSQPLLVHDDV

Row | SMILES | IC50 [nM]
10 | CC(=O)N1CCc2cc(Nc3ncc(C(F)(F)F)c(N[C@H]4CC[C@@H](N)CC4)n3)ccc2C1 | 1080
11 | C[C@@H](O)C(=O)N1CCc2cc(Nc3ncc(C(F)(F)F)c(N[C@H]4CC[C@@H](N)CC4)n3)ccc2C1 | 1800
12 | CC(C)(O)C(=O)N1Cc2ccc(Nc3ncc(C(F)(F)F)c(N[C@H]4CC[C@@H](N)CC4)n3)cc2C1 | 3090

tested on: not listed separately; experiment: Selectivity ratio of IC50 for inhibition of c-KIT (unknown origin) to IC50 for inhibition of FLT3 D835Y mutant (unknown origin); conditions: not given

Row | SMILES | Ratio IC50
13 | CC(=O)N1CCc2cc(Nc3ncc(C(F)(F)F)c(N[C@H]4CC[C@@H](N)CC4)n3)ccc2C1 | 1240
14 | C[C@@H](O)C(=O)N1CCc2cc(Nc3ncc(C(F)(F)F)c(N[C@H]4CC[C@@H](N)CC4)n3)ccc2C1 | 1440
15 | CC(C)(O)C(=O)N1Cc2ccc(Nc3ncc(C(F)(F)F)c(N[C@H]4CC[C@@H](N)CC4)n3)cc2C1 | 2290

tested on: MV4-11; experiment: cells; conditions: Homo sapiens, MV4-11, 72 h
Description: Antiproliferative activity against human MV4-11 cells assessed as reduction in cell viability incubated for 72 hrs by CellTiter 96 Aqueous One Solution Cell Proliferation Assay

Row | SMILES | IC50 [nM]
16 | CC(=O)N1CCc2cc(Nc3ncc(C(F)(F)F)c(N[C@H]4CC[C@@H](N)CC4)n3)ccc2C1 | 0.07
17 | C[C@@H](O)C(=O)N1CCc2cc(Nc3ncc(C(F)(F)F)c(N[C@H]4CC[C@@H](N)CC4)n3)ccc2C1 | 0.21
18 | CC(C)(O)C(=O)N1Cc2ccc(Nc3ncc(C(F)(F)F)c(N[C@H]4CC[C@@H](N)CC4)n3)cc2C1 | 0.5

tested on: BaF3; experiment: Antiproliferative activity against mouse BaF3 cells harboring FLT3 D835F mutant assessed as reduction in cell viability incubated for 72 hrs by CellTiter 96 Aqueous One Solution Cell Proliferation Assay; assay type: functional, cell-based; conditions: not given

Row | SMILES | Activity
19 | CC(=O)N1CCc2cc(Nc3ncc(C(F)(F)F)c(N[C@H]4CC[C@@H](N)CC4)n3)ccc2C1 | Active
20 | C[C@@H](O)C(=O)N1CCc2cc(Nc3ncc(C(F)(F)F)c(N[C@H]4CC[C@@H](N)CC4)n3)ccc2C1 | Active
21 | CC(C)(O)C(=O)N1Cc2ccc(Nc3ncc(C(F)(F)F)c(N[C@H]4CC[C@@H](N)CC4)n3)cc2C1 | Active

tested on: not listed separately; experiment: Tmax in ICR mouse at 10 mg/kg, po; assay type: ADME, organism-based; conditions: in vivo

Row | SMILES | Tmax [h]
22 | CC(=O)N1CCc2cc(Nc3ncc(C(F)(F)F)c(N[C@H]4CC[C@@H](N)CC4)n3)ccc2C1 | 2
23 | C[C@@H](O)C(=O)N1CCc2cc(Nc3ncc(C(F)(F)F)c(N[C@H]4CC[C@@H](N)CC4)n3)ccc2C1 | 2
24 | CC(C)(O)C(=O)N1Cc2ccc(Nc3ncc(C(F)(F)F)c(N[C@H]4CC[C@@H](N)CC4)n3)cc2C1 | 2

tested on: not listed separately; experiment: AUC (last) in ICR mouse at 10 mg/kg, po; assay type: ADME, organism-based; set-up: dose 10 mg/kg, route po; conditions: in vivo

Row | SMILES | AUC(0-t) [ng·h/mL]
25 | CC(=O)N1CCc2cc(Nc3ncc(C(F)(F)F)c(N[C@H]4CC[C@@H](N)CC4)n3)ccc2C1 | 1080
26 | C[C@@H](O)C(=O)N1CCc2cc(Nc3ncc(C(F)(F)F)c(N[C@H]4CC[C@@H](N)CC4)n3)ccc2C1 | 220
27 | CC(C)(O)C(=O)N1Cc2ccc(Nc3ncc(C(F)(F)F)c(N[C@H]4CC[C@@H](N)CC4)n3)cc2C1 | 577

tested on: not listed separately; experiment: MRT (infinity) in ICR mouse at 10 mg/kg, po; assay type: ADME, organism-based; conditions: in vivo

Row | SMILES | MRT inf [h]
28 | CC(=O)N1CCc2cc(Nc3ncc(C(F)(F)F)c(N[C@H]4CC[C@@H](N)CC4)n3)ccc2C1 | 2.22
29 | C[C@@H](O)C(=O)N1CCc2cc(Nc3ncc(C(F)(F)F)c(N[C@H]4CC[C@@H](N)CC4)n3)ccc2C1 | 2.05
30 | CC(C)(O)C(=O)N1Cc2ccc(Nc3ncc(C(F)(F)F)c(N[C@H]4CC[C@@H](N)CC4)n3)cc2C1 | 1.92

molecular target: hERG (KCNH2) (Homo sapiens, UniProt Q12809); experiment: Inhibition of hERG expressed in HEK293 cells at 20 uM by whole cell patch clamp analysis; assay type: toxicity, cell-based; conditions: HEK293 cells expressing hERG
Sequence (Q12809 whole entry): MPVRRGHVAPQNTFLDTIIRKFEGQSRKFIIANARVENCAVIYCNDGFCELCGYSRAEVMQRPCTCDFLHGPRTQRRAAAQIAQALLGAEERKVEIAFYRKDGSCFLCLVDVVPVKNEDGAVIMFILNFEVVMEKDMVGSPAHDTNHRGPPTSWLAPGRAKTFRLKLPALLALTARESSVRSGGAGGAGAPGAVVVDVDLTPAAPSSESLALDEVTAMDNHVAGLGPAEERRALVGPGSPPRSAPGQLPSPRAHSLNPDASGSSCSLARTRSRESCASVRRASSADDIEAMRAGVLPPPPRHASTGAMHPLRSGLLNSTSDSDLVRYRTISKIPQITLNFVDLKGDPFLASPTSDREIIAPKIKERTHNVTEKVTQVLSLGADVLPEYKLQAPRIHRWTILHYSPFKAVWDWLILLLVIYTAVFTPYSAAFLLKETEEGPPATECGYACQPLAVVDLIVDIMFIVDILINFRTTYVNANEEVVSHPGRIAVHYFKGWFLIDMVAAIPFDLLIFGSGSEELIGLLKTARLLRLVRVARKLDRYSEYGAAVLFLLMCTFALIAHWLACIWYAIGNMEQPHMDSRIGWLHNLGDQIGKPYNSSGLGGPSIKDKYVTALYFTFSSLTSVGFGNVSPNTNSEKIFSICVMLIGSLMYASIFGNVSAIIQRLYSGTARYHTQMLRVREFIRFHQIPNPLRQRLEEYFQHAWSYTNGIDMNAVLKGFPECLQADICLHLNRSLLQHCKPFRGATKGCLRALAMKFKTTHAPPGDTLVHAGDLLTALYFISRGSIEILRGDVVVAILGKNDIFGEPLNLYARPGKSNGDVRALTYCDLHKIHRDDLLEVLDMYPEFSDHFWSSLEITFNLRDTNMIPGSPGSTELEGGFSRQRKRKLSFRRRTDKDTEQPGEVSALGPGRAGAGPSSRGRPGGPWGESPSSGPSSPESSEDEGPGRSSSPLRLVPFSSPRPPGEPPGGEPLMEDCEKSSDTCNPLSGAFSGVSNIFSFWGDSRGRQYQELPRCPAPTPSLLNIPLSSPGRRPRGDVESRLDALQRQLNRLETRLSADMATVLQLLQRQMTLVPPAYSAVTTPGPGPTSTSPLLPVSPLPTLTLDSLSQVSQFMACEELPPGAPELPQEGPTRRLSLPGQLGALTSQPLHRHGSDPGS

Row | SMILES | inhibition at 20 µM [%]
31 | CC(=O)N1CCc2cc(Nc3ncc(C(F)(F)F)c(N[C@H]4CC[C@@H](N)CC4)n3)ccc2C1 | 33.2
32 | C[C@@H](O)C(=O)N1CCc2cc(Nc3ncc(C(F)(F)F)c(N[C@H]4CC[C@@H](N)CC4)n3)ccc2C1 | 14.6
33 | CC(C)(O)C(=O)N1Cc2ccc(Nc3ncc(C(F)(F)F)c(N[C@H]4CC[C@@H](N)CC4)n3)cc2C1 | 17.5

tested on: not listed separately; experiment: Half life in ICR mouse at 10 mg/kg, po; assay type: ADME, organism-based; conditions: in vivo

Row | SMILES | half-life [h]
34 | CC(=O)N1CCc2cc(Nc3ncc(C(F)(F)F)c(N[C@H]4CC[C@@H](N)CC4)n3)ccc2C1 | 0.81
35 | C[C@@H](O)C(=O)N1CCc2cc(Nc3ncc(C(F)(F)F)c(N[C@H]4CC[C@@H](N)CC4)n3)ccc2C1 | 0.96
36 | CC(C)(O)C(=O)N1Cc2ccc(Nc3ncc(C(F)(F)F)c(N[C@H]4CC[C@@H](N)CC4)n3)cc2C1 | 0.63

molecular target: T1, Serine/threonine-protein kinase Chk1 (Homo sapiens, UniProt O14757); experiment: not given; conditions: not given
T1 sequence (O14757 whole entry): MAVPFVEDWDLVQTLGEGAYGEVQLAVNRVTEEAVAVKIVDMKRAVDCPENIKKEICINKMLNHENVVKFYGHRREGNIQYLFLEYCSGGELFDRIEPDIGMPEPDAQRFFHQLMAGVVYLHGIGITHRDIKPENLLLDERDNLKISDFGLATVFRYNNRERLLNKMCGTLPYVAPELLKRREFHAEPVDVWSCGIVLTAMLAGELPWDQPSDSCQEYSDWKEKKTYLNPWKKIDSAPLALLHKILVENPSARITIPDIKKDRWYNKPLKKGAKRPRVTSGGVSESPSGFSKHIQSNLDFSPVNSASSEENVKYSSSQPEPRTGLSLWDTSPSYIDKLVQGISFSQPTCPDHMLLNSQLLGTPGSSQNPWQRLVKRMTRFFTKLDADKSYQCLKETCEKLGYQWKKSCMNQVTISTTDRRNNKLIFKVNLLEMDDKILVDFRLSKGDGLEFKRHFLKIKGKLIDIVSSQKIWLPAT

Row | SMILES | IC50 [nM]
37 | CC(=O)N1CCc2cc(Nc3ncc(C(F)(F)F)c(N[C@H]4CC[C@@H](N)CC4)n3)ccc2C1 | 7.6
38 | C[C@@H](O)C(=O)N1CCc2cc(Nc3ncc(C(F)(F)F)c(N[C@H]4CC[C@@H](N)CC4)n3)ccc2C1 | 10.8
39 | CC(C)(O)C(=O)N1Cc2ccc(Nc3ncc(C(F)(F)F)c(N[C@H]4CC[C@@H](N)CC4)n3)cc2C1 | 13.5

molecular target: Receptor-type tyrosine-protein kinase FLT3 (Homo sapiens, UniProt P36888, D835Y); experiment: not given; conditions: not given

Row | SMILES | IC50 [nM]
40 | CC(=O)N1CCc2cc(Nc3ncc(C(F)(F)F)c(N[C@H]4CC[C@@H](N)CC4)n3)ccc2C1 | 0.87
41 | C[C@@H](O)C(=O)N1CCc2cc(Nc3ncc(C(F)(F)F)c(N[C@H]4CC[C@@H](N)CC4)n3)ccc2C1 | 1.25
42 | CC(C)(O)C(=O)N1Cc2ccc(Nc3ncc(C(F)(F)F)c(N[C@H]4CC[C@@H](N)CC4)n3)cc2C1 | 1.35

tested on: not listed separately; experiment: AUC (infinity) in ICR mouse at 10 mg/kg, po; assay type: ADME, organism-based; set-up: dose 10 mg/kg, route po; conditions: in vivo

Row | SMILES | AUC(0-inf) [ng·h/mL]
43 | CC(=O)N1CCc2cc(Nc3ncc(C(F)(F)F)c(N[C@H]4CC[C@@H](N)CC4)n3)ccc2C1 | 1100
44 | C[C@@H](O)C(=O)N1CCc2cc(Nc3ncc(C(F)(F)F)c(N[C@H]4CC[C@@H](N)CC4)n3)ccc2C1 | 226
45 | CC(C)(O)C(=O)N1Cc2ccc(Nc3ncc(C(F)(F)F)c(N[C@H]4CC[C@@H](N)CC4)n3)cc2C1 | 604
